Test system: primary human T-cells
Assay: Proliferation assay (5 days, CellTiter-Glo, CD3-stimulated T-cells)
Type: cell-based
Details: for Emax proliferation (% activation): CD3 condition, normalised to DMSO (neutral) and 20 μM reference compound A1 = 100%; for EC50: Homo sapiens, T-cell, 120 h, CD3-stimulated primary human T-cells, 5 days, CellTiter-Glo, fitted sigmoidal curve, read-out: Tcell Proliferation CD3 EC50
Outline: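 Expanded primary human T-cells, 100 k cells/well, were stimulated with plate-coated CD3 antibody (donor-titrated) and given compound in a 5 or 6 pt dose response from 20 μM or 10 μM final top, 0.2% DMSO final. ATP was read by CellTiter-Glo after 5 days. EC50 and Emax were reported as % of 20 μM reference compound A1.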

In the case of CC(C)(C#N)c1nnc(-c2ccc3c(c2)N(Cc2ccc(-c4cc(OC(F)F)ccn4)cc2)C(=O)[C@@H](N)CS3(=O)=O)o1 [Example 110, 2-[5-[(3R)-3-amino-5-[[4-[4-(difluoromethoxy)-2-pyridyl]phenyl]methyl]-1,1,4-trioxo-2,3-dihydro-1λ^6,5-benzothiazepin-7-yl]-1,3,4-oxadiazol-2-yl]-2-methyl-propanenitrile], the “Emax proliferation (% activation)” value is reported as 85 % activation and the EC50 is reported as 5780 nM.
For CC(C)(C#N)c1nnc(-c2ccc3c(c2)N(Cc2ccc(-c4ccnc(C(F)(F)F)c4)cc2)C(=O)[C@@H](N)CS3(=O)=O)o1 [Example 111, 2-[5-[(3R)-3-amino-1,1,4-trioxo-5-[[4-[2-(trifluoromethyl)-4-pyridyl]phenyl]methyl]-2,3-dihydro-1λ^6,5-benzothiazepin-7-yl]-1,3,4-oxadiazol-2-yl]-2-methyl-propanenitrile], the “Emax proliferation (% activation)” value was 117 % activation and the EC50 was 926 nM.
In the case of CC(C)(C#N)c1nnc(-c2ccc3c(c2)N(Cc2ccc(-c4cnc(OC(F)(F)F)cn4)cc2)C(=O)[C@@H](N)CS3(=O)=O)o1 [Example 112], the “Emax proliferation (% activation)” value is reported as 116 % activation and the EC50 is reported as 292 nM.
In the case of CC(C)(C#N)c1nnc(-c2ccc3c(c2)N(Cc2ccc(-c4ccc(C(F)(F)F)nc4)cc2)C(=O)[C@@H](N)CS3(=O)=O)o1 [Example 113, 2-[5-[(3R)-3-amino-1,1,4-trioxo-5-[[4-[6-(trifluoromethyl)-3-pyridyl]phenyl]methyl]-2,3-dihydro-1λ^6,5-benzothiazepin-7-yl]-1,3,4-oxadiazol-2-yl]-2-methyl-propanenitrile], the “Emax proliferation (% activation)” value is reported as 79 % activation and the EC50 is reported as 1060 nM.
For Cc1nc(-c2ccc(CN3C(=O)[C@@H](N)CS(=O)(=O)c4ccc(-c5nnc(C(C)(C)C#N)o5)cc43)cc2)ccc1C(F)(F)F [Example 114], the “Emax proliferation (% activation)” value was 78 % activation and the EC50 was 7420 nM.
In the case of CC(C)(C#N)c1nnc(-c2ccc3c(c2)N(Cc2ccc(-c4cnn(C(F)(F)F)c4)cc2)C(=O)[C@@H](N)CS3(=O)=O)o1 [Example 115, 2-[5-[(3R)-3-amino-1,1,4-trioxo-5-[[4-[1-(trifluoromethyl)pyrazol-4-yl]phenyl]methyl]-2,3-dihydro-1λ^6,5-benzothiazepin-7-yl]-1,3,4-oxadiazol-2-yl]-2-methyl-propanenitrile], the “Emax proliferation (% activation)” value is reported as 140 % activation and the EC50 is reported as 278 nM.
In the case of CC(C)(C#N)c1nnc(-c2ccc3c(c2)N(Cc2ccc(-c4cc(C(F)(F)F)ccn4)cc2)C(=O)[C@@H](N)CS3(=O)=O)o1 [Example 116, 2-[5-[(3R)-3-amino-1,1,4-trioxo-5-[[4-[4-(trifluoromethyl)-2-pyridyl]phenyl]methyl]-2,3-dihydro-1λ^6,5-benzothiazepin-7-yl]-1,3,4-oxadiazol-2-yl]-2-methyl-propanenitrile], the “Emax proliferation (% activation)” value is reported as 97 % activation and the EC50 is reported as 439 nM.
For CC(C)(C#N)c1nnc(-c2ccc3c(c2)N(Cc2ccc(-c4ncc(OC(F)(F)F)cn4)cc2)C(=O)[C@@H](N)CS3(=O)=O)o1 [Example 117], the “Emax proliferation (% activation)” value was 136 % activation and the EC50 was 174 nM.
With CC(C)(C#N)c1nnc(-c2ccc3c(c2)N(Cc2ccc(-c4ccc(C5CC5)cn4)cc2)C(=O)[C@@H](N)CS3(=O)=O)o1 [Example 118, 2-[5-[(3R)-3-amino-5-[[4-(5-cyclopropyl-2-pyridyl)phenyl]methyl]-1,1,4-trioxo-2,3-dihydro-1λ^6,5-benzothiazepin-7-yl]-1,3,4-oxadiazol-2-yl]-2-methyl-propanenitrile] the “Emax proliferation (% activation)” value was 144 % activation and the EC50 was 1570 nM.
In the case of CC(C)(C#N)c1nnc(-c2ccc3c(c2)N(Cc2ccc(-c4ccc(OC(F)(F)F)cc4)nc2)C(=O)[C@@H](N)CS3(=O)=O)o1 [Example 119, 2-[5-[(3R)-3-amino-1,1,4-trioxo-5-[[6-[4-(trifluoromethoxy)phenyl]-3-pyridyl]methyl]-2,3-dihydro-1λ^6,5-benzothiazepin-7-yl]-1,3,4-oxadiazol-2-yl]-2-methyl-propanenitrile], the “Emax proliferation (% activation)” value is reported as 119 % activation and the EC50 is reported as 809 nM.
For CC(C)(C#N)c1nnc(-c2ccc3c(c2)N(Cc2ccc(-n4nnc(C(F)(F)F)n4)cc2)C(=O)[C@@H](N)CS3(=O)=O)o1 [Example 120, 2-[5-[(3R)-3-amino-1,1,4-trioxo-5-[[4-[5-(trifluoromethyl)tetrazol-2-yl]phenyl]methyl]-2,3-dihydro-1λ^6,5-benzothiazepin-7-yl]-1,3,4-oxadiazol-2-yl]-2-methyl-propanenitrile], the “Emax proliferation (% activation)” value was 205 % activation and the EC50 was 1520 nM.
In the case of CC(C)(C#N)c1nnc(-c2ccc3c(c2)N(Cc2ccc(-c4nc(C(F)(F)F)co4)cc2)C(=O)[C@@H](N)CS3(=O)=O)o1 [Example 123, 2-[5-[(3R)-3-amino-1,1,4-trioxo-5-[[4-[4-(trifluoromethyl)oxazol-2-yl]phenyl]methyl]-2,3-dihydro-1λ^6,5-benzothiazepin-7-yl]-1,3,4-oxadiazol-2-yl]-2-methyl-propanenitrile], the “Emax proliferation (% activation)” value is reported as 103 % activation and the EC50 is reported as 860 nM.
With COc1ccc(-c2ccc(CN3C(=O)[C@@H](N)CS(=O)(=O)c4ccc(-c5nnc(C(C)(C)C#N)o5)cc43)cc2)nc1 [Example 125] the “Emax proliferation (% activation)” value was 127 % activation and the EC50 was 2310 nM.
With CC(C)(C#N)c1nnc(-c2ccc3c(c2)N(Cc2ccc(-c4cc(OC(F)(F)F)ccn4)cc2)C(=O)[C@@H](N)CS3(=O)=O)o1 [Example 126, 2-[5-[(3R)-3-amino-1,1,4-trioxo-5-[[4-[4-(trifluoromethoxy)-2-pyridyl]phenyl]methyl]-2,3-dihydro-1λ^6,5-benzothiazepin-7-yl]-1,3,4-oxadiazol-2-yl]-2-methyl-propanenitrile] the “Emax proliferation (% activation)” value was 212 % activation and the EC50 was 2490 nM.
In the case of CC(C)(C#N)c1nnc(-c2ccc3c(c2)N(Cc2ccc(-c4ncc(C(F)(F)F)cn4)cc2)C(=O)[C@@H](N)CS3(=O)=O)o1 [Example 127, 2-[5-[(3R)-3-amino-1,1,4-trioxo-5-[[4-[5-(trifluoromethyl)pyrimidin-2-yl]phenyl]methyl]-2,3-dihydro-1λ^6,5-benzothiazepin-7-yl]-1,3,4-oxadiazol-2-yl]-2-methyl-propanenitrile], the “Emax proliferation (% activation)” value is reported as 130 % activation and the EC50 is reported as 1980 nM.
In the case of CC(C)(C#N)c1nnc(-c2ccc3c(c2)N(Cc2ccc(-c4ccc(OC(F)(F)C(F)(F)F)cn4)cc2)C(=O)[C@@H](N)CS3(=O)=O)o1 [Example 129, 2-[5-[(3R)-3-amino-1,1,4-trioxo-5-[[4-[5-(1,1,2,2,2-pentafluoroethoxy)-2-pyridyl]phenyl]methyl]-2,3-dihydro-1λ^6,5-benzothiazepin-7-yl]-1,3,4-oxadiazol-2-yl]-2-methyl-propanenitrile], the “Emax proliferation (% activation)” value is reported as 119 % activation and the EC50 is reported as 22.8 nM.
With N[C@H]1CS(=O)(=O)c2ccc(-c3nnc(C4(C(F)F)CNC4)o3)cc2N(Cc2ccc(-c3ccc(C(F)(F)F)cc3)cc2)C1=O [Example 152] the “Emax proliferation (% activation)” value was 90 % activation and the EC50 was 1440 nM.
For C[C@@](N)(c1nnc(-c2ccc3c(c2)N(Cc2ccc(-c4ccc(OC(F)(F)F)cn4)cc2)C(=O)[C@@H](N)CS3(=O)=O)o1)C(F)(F)F [Example 153, (3R)-3-amino-7-[5-[(1R)-1-amino-2,2,2-trifluoro-1-methyl-ethyl]-1,3,4-oxadiazol-2-yl]-1,1-dioxo-5-[[4-[5-(trifluoromethoxy)-2-pyridyl]phenyl]methyl]-2,3-dihydro-1λ^6,5-benzothiazepin-4-one], the “Emax proliferation (% activation)” value was 178 % activation and the EC50 was 130 nM.
In the case of C[C@@](N)(c1nnc(-c2ccc3c(c2)N(Cc2ccc(-c4ccc(C(F)(F)F)cn4)cc2)C(=O)[C@@H](N)CS3(=O)=O)o1)C(F)(F)F [Example 154, (3R)-3-amino-7-[5-[(1R)-1-amino-2,2,2-trifluoro-1-methyl-ethyl]-1,3,4-oxadiazol-2-yl]-1,1-dioxo-5-[[4-[5-(trifluoromethyl)-2-pyridyl]phenyl]methyl]-2,3-dihydro-1λ^6,5-benzothiazepin-4-one], the “Emax proliferation (% activation)” value is reported as 151 % activation and the EC50 is reported as 984 nM.
For C[C@@](N)(c1nnc(-c2ccc3c(c2)N(Cc2ccc(-n4nnc(C(F)(F)F)n4)cc2)C(=O)[C@@H](N)CS3(=O)=O)o1)C(F)(F)F [Example 156, (3R)-3-amino-7-[5-[(1R)-1-amino-2,2,2-trifluoro-1-methyl-ethyl]-1,3,4-oxadiazol-2-yl]-1,1-dioxo-5-[[4-[5-(trifluoromethyl)tetrazo 1-2-yl]phenyl]methyl]-2,3-dihydro-1λ^6,5-benzothiazepin-4-one], the “Emax proliferation (% activation)” value was 141 % activation and the EC50 was 1710 nM.
With COC(=O)N1CC2CC(c3nnc(-c4ccc5c(c4)N(Cc4ccc(-c6noc(C(F)(F)F)n6)cc4)C(=O)[C@@H](N)CS5(=O)=O)o3)(C2)C1 [Example 158, methyl 1-[5-[(3R)-3-amino-1,1,4-trioxo-5-[[4-[5-(trifluoromethyl)-1,2,4-oxadiazol-3-yl]phenyl]methyl]-2,3-dihydro-1λ^6,5-benzothiazepin-7-yl]-1,3,4-oxadiazol-2-yl]-3-azabicyclo[3.1.1]heptane-3-carboxylate] the “Emax proliferation (% activation)” value was 150 % activation and the EC50 was 304 nM.
For N[C@H]1CS(=O)(=O)c2ccc(-c3nnc(N4CCC(F)(F)CC4)o3)cc2N(Cc2ccc(-c3ccc(C(F)(F)F)cn3)cc2)C1=O [Example 160], the “Emax proliferation (% activation)” value was 150 % activation and the EC50 was 1300 nM.
With CC(C)(c1nnc(-c2ccc3c(c2)N(Cc2ccc(-c4ccc(OC(F)(F)F)cn4)cc2)C(=O)[C@@H](N)CS3(=O)=O)o1)C(F)(F)F [Example 165, (3R)-3-amino-1,1-dioxo-7-[5-(2,2,2-trifluoro-1,1-dimethyl-ethyl)-1,3,4-oxadiazol-2-yl]-5-[[4-[5-(trifluoromethoxy)-2-pyridyl]phenyl]methyl]-2,3-dihydro-1λ^6,5-benzothiazepin-4-one] the “Emax proliferation (% activation)” value was 139 % activation and the EC50 was 153 nM.

From patent US20260138976A1 (Hoffmann-La Roche Inc., priority 2022, published 2026)
